Calls of active or inactive are those of the source. The rule behind the calls is not given here.
Experiments:
[1] = tested on: Huh-7; assay: Cytotoxicity against human HuH7 cells expressing positive EpCAM/CD133 assessed as reduction in cell viability measured after 72 hrs by MTT assay; format: functional, cell-based; settings: Huh-7, 72 h
[2] = tested on: HepG2; assay: Induction of 3D spheroid death in human HepG2 cells assessed as upregulation of p53 measured after 24 hrs by DAPI staining based fluorescence microscopy analysis assay; format: functional, cell-based
[3] = tested on: Huh-7; assay: Cytotoxicity against human HuH7 cells assessed as reduction in cell viability measured after 24 hrs by MTT assay; format: functional, cell-based; settings: Huh-7, 24 h
[4] = tested on: Huh-7; assay: Induction of apoptosis in human HuH7 cells assessed as increase in early apoptotic cells at 10 uM measured after 48 hrs by Annexin V-FITC/propidium iodide staining based flow cytometry analysis; format: functional, cell-based
[5] = molecular target: T1, NAD-dependent protein deacetylase sirtuin-1 (Homo sapiens) (UniProt Q96EB6); assay: Inhibition of human recombinant SIRT1 using FLUOR DE LYS SIRT1, deacetylase as substrate preincubated for 2 mins followed by substrate addition measured after 1 hr in presence of NAD+ by fluorescence assay
T1 sequence (whole entry): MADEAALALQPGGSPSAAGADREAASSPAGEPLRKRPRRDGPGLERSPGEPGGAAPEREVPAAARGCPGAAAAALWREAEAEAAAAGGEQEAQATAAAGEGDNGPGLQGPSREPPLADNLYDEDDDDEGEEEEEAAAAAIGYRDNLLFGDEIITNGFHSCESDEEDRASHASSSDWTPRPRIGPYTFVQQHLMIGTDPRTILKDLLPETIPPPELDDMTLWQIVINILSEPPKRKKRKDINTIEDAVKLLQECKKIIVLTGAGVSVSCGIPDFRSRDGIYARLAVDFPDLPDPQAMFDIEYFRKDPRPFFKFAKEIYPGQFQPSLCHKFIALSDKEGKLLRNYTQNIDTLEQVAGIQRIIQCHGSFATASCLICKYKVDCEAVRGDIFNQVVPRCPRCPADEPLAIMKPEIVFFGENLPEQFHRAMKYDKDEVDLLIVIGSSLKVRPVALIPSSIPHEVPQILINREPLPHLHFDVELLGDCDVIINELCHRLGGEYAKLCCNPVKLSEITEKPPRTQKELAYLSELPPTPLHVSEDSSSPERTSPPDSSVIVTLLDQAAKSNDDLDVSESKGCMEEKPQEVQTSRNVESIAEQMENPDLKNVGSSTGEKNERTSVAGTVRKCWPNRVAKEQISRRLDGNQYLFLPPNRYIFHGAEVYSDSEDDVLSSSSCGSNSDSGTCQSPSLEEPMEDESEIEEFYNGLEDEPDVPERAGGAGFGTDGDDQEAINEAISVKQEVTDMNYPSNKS

[6] = molecular target: Exportin-1 (Homo sapiens) (UniProt O14980); assay: Inhibition of CRM1 in human HuH7 cells assessed as upregulation of p53 by measuring accumulation in nucleus at 0.1 to 10 uM measured after 24 to 48 hrs by DAPI staining based immunofluorescence microscopy analysis; format: cell-based
Sequence of Exportin-1 (Homo sapiens) (O14980 whole entry): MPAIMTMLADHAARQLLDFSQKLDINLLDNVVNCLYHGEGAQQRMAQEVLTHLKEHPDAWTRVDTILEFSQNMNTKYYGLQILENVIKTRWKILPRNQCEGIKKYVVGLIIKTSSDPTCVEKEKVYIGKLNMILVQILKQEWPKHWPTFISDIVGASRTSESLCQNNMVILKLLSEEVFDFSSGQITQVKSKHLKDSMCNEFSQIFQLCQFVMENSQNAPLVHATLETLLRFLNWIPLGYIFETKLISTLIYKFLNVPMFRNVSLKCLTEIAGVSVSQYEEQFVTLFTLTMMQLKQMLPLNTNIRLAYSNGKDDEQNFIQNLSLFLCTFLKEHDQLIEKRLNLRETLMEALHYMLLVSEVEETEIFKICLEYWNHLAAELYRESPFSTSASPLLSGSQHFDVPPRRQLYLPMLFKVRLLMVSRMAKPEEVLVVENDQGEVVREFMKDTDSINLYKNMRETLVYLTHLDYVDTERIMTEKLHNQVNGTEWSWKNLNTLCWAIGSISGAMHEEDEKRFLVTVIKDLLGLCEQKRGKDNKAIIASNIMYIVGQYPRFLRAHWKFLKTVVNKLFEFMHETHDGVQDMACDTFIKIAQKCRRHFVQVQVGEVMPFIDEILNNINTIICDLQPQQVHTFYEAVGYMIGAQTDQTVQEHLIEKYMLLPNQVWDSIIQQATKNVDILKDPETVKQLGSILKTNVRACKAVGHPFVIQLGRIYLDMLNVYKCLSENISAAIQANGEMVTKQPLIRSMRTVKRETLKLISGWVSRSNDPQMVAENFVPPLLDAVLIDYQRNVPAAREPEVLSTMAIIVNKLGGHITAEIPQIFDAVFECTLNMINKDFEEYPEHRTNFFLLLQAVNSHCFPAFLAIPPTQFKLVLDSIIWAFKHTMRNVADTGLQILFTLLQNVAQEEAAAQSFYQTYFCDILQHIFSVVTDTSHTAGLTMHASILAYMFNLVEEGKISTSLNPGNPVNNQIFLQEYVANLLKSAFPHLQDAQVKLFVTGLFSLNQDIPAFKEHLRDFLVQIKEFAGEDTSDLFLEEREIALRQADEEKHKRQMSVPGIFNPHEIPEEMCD

[7] = tested on: Huh-7; assay: Cytotoxicity against human HuH7 cells expressing positive EpCAM/CD133 assessed as reduction in cell viability measured after 24 hrs by MTT assay; format: functional, cell-based; settings: Huh-7, 24 h
[8] = tested on: Huh-7; assay: Upregulation of p21 expression in human HuH7 cells expressing positive EpCAM/CD133 at 1 to 3 uM measured after 72 hrs by SYBR-green based qPCR analysis; format: functional, cell-based
[9] = tested on: Huh-7; assay: Cell cycle arrest in human HuH7 cells assessed as increase in accumulation at G1 phase at 1 to 1.25 uM measured after 48 hrs by propidium iodide staining based flow cytometry analysis; format: functional
[10] = tested on: Huh-7; assay: Cell cycle arrest in human HuH7 cells assessed as increase in cell accumulation at G2 phase at 10 uM measured after 48 hrs by propidium iodide staining based flow cytometry analysis; format: functional
[11] = tested on: Huh-7; assay: Induction of apoptosis in human HuH7 positive EpCAM/CD133 cells measured after 48 hrs by Annexin V-FITC/propidium iodide staining based flow cytometry analysis; format: functional, cell-based
[12] = tested on: Huh-7; assay: Induction of apoptosis in human HuH7 negative EpCAM/CD133 cells assessed as change in cell morphology at 0.1 to 10 uM measured after 48 hrs by 2D microscopic analysis; format: functional, cell-based
[13] = tested on: Huh-7; assay: Cell cycle arrest in human HuH7 positive EpCAM/CD133 cells assessed as increase in accumulation at G1 phase at 1 to 1.25 uM measured after 48 hrs by propidium iodide staining based flow cytometry analysis; format: functional
[14] = tested on: Huh-7; assay: Upregulation of SIRT1 in human HuH7 cells assessed as fold change at 5 uM measured after 24 hrs by ELISA relative to control; format: functional
[15] = molecular target: Exportin-1 (Homo sapiens) (UniProt O14980); assay: Inhibition of CRM1 in human HepG2 cells assessed as accumulation of RIOK2 in nucleus at 1 and 10 uM measured after 24 hrs by DAPI staining based confocal microscopy analysis; format: cell-based
[16] = molecular target: T1, NAD-dependent protein deacetylase sirtuin-1 (Homo sapiens); assay: Inhibition of human recombinant SIRT1 at 100 uM using FLUOR DE LYS SIRT1, deacetylase as substrate preincubated for 2 mins followed by substrate addition measured after 1 hr in presence of NAD+ by fluorescence assay relative to control
[17] = tested on: Huh-7; assay: Induction of apoptosis in human HuH7 negative EpCAM/CD133 cells assessed as change in cell number at 0.1 to 10 uM measured after 48 hrs by 2D microscopic analysis; format: functional, cell-based
[18] = molecular target: Histone deacetylase 1 (Homo sapiens) (UniProt Q13547); assay: Inhibition of human recombinant HDAC1 using FLUOR DE LYS SIRT1, deacetylase as substrate preincubated for 2 mins followed by substrate addition measured after 1 hr by fluorescence assay
Sequence of Histone deacetylase 1 (Homo sapiens) (Q13547 whole entry): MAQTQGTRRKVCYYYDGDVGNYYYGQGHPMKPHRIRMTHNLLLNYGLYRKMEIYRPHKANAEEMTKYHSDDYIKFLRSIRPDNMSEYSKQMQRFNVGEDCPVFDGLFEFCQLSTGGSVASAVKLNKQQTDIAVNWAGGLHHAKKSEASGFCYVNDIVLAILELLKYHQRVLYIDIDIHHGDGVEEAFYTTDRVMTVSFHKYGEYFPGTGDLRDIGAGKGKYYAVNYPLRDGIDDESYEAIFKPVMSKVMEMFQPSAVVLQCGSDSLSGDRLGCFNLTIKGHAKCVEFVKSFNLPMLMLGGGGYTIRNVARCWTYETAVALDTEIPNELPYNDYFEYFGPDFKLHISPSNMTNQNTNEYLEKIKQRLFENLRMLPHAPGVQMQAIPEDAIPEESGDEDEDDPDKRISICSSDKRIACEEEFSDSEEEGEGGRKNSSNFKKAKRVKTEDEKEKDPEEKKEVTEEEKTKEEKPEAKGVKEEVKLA

[19] = molecular target: Histone-lysine N-methyltransferase EZH2 (Homo sapiens) (UniProt Q15910); assay: Activation of EZH2 in human HuH7 cells assessed as upregulation of H3K27me3 expression measured after 4 hrs by Western blot analysis; format: cell-based
Sequence of Histone-lysine N-methyltransferase EZH2 (Homo sapiens) (Q15910 whole entry, looked up): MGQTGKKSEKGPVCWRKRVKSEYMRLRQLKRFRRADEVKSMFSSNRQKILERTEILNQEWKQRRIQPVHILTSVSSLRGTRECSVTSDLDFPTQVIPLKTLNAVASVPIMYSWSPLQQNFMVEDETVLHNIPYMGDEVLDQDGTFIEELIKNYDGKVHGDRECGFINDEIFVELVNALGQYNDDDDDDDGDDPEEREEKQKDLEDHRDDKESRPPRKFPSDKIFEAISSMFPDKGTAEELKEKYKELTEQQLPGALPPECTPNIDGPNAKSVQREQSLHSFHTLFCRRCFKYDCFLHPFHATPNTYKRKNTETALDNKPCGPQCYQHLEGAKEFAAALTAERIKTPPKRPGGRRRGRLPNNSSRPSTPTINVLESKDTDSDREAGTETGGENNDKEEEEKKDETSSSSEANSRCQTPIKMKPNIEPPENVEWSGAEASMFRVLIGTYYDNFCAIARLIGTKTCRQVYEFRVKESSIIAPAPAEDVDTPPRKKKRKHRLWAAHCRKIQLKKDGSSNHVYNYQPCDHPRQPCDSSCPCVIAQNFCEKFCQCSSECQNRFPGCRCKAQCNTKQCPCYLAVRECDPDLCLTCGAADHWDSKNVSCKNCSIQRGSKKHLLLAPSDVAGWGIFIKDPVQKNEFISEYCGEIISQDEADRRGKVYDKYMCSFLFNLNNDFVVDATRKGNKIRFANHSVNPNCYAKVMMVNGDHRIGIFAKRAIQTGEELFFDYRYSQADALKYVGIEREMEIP

[20] = tested on: Huh-7; assay: Induction of apoptosis in human HuH7 cells assessed as change in cell numbers at 0.1 to 10 uM measured after 48 hrs by 2D microscopic analysis; format: functional, cell-based
[21] = tested on: HepG2; assay: Induction of apoptosis in human 3D HepG2 spheroids at 0.1 uM measured after 24 hrs by propidium iodide staining based immunofluorescence microscopy analysis; format: functional, cell-based
[22] = tested on: Huh-7; assay: Cytotoxicity against human HuH7 cells negative EpCAM/CD133 assessed as reduction in cell viability measured after 48 to 72 hrs by MTT assay; format: functional, cell-based
[23] = molecular target: Exportin-1 (Homo sapiens) (UniProt O14980); assay: Inhibition of CRM1 in human HepG2 cells assessed as upregulation of p53 by measuring accumulation in nucleus at 0.1 to 10 uM measured after 6 to 24 hrs by DAPI staining based immunofluorescence microscopy analysis; format: cell-based
[24] = tested on: Huh-7; assay: Cytotoxicity against human HuH7 cells assessed as effect on SIRT1 protein level at 5 uM measured after 24 hrs by ELISA; format: functional, cell-based
[25] = tested on: HepG2; assay: Cytotoxicity against human HepG2 cells assessed as reduction in cell viability measured after 48 hrs by MTT assay; format: functional, cell-based; settings: HepG2, 48 h

For `Cc1ccc([C@H]2CC=CC(=O)O2)c2ccccc12`, the IC50 [1] was 1250 nM, the Activity [2] was “Dose-dependent effect” and the IC50 [3] was 10000 nM. The Activity [4] was “Active”, the inhibition [5] was “Dose-dependent effect” and the inhibition [6] was “Active”. The IC50 [7] was 10000 nM, the Activity [8] was “Active” and the Activity [9] was “Active”. The Activity [10] was “Active”, the Activity [11] was “Dose-dependent effect” and the Activity [12] was “Active”. The Activity [13] was “Active”, the “fold change (FC)” value [14] was 2 and the inhibition [15] was “Active”. The inhibition [16] was 50%, the Activity [17] was “Active” and the inhibition [18] was “inactive”. The Activity [19] was “Active”, the Activity [20] was “Active” and the Activity [21] was “inactive”. The IC50 [22] was 1250 nM, the inhibition [23] was “Active” and the Activity [24] was “Active”. The IC50 [25] was 250 nM.
